Reference: ChEMBL document CHEMBL5360532, “Current scenario of quinolone hybrids with potential antibacterial activity against ESKAPE pathogens” (Eur J Med Chem, 2023)
≈ marks a conversion by molar mass, not a printed value.

Tests used:
Assay type in all cases: functional
[1] = tested on: Mycobacterium tuberculosis; assay: Antimycobacterial activity against multidrug resistant Mycobacterium tuberculosis assessed as bacterial growth inhibition by agar cup diffusion assay
[2] = tested on: Mycobacterium tuberculosis; assay: Antimycobacterial activity against extensive drug resistant Mycobacterium tuberculosis assessed as bacterial growth inhibition by agar cup diffusion assay
[3] = tested on: Mycobacterium tuberculosis; assay: Potency index, ratio of ciprofloxacin MIC to test compound MIC for antimycobacterial activity against multidrug resistant Mycobacterium tuberculosis assessed as bacterial growth inhibition by LJ slant assay
[4] = tested on: Mycobacterium tuberculosis; assay: Potency index, ratio of ciprofloxacin MIC to test compound MIC for antimycobacterial activity against extensive drug resistant Mycobacterium tuberculosis assessed as bacterial growth inhibition by LJ slant assay

| SMILES | MIC [1] [µg/mL] | MIC [2] [µg/mL] | Ratio [3] | Ratio [4] |
| --- | --- | --- | --- | --- |
| O=C(CN1CCN(c2cc3c(cc2F)c(=O)c(C(=O)O)cn3C2CC2)CC1)Nc1nnc(-c2ccccc2)s1 | 8 (≈ 14.6 µM) | 8 (≈ 14.6 µM) |  |  |
| C=CCn1c(SCC(=O)N2CCN(c3cc4c(cc3F)c(=O)c(C(=O)O)cn4C3CC3)CC2)nnc1-c1ccccc1 | 4 (≈ 6.8 µM) | 4 (≈ 6.8 µM) |  |  |
| O=c1c(-c2nnc(S)o2)cn(C2CC2)c2cc(N3CCNCC3)c(F)cc12 |  |  | >=32 | >=32 |
